The test system of data set [1] is German cockroaches. The experiment in a line: Walk-across continuous exposure in treated jars (Study A and B). The class given is in vivo. The method, then:
Experiment 1: To determine the lethal activity of menthyl salicylate against cockroaches. Menthyl salicylate was tested at 250 mg/jar against German cockroaches. Two replicates were used in this study. Three adult German cockroaches were used per replicate. Continuous exposure was performed with “walk-across”. All controls and treated roaches were under continuous observations for 6 hrs.
Experiment 1. To determine whether menthyl salicylate acts as a synergist to eugenol and /or PEP blend. This experiment was also conducted against German cockroaches as described in Study A. Several blends of Eugenol/PEP were tested.

The test system of data set [2] is harvester. The experiment in a line: Open glass petri dish exposure (Study E). The data set is classed as in vivo, harvester ants. The conditions noted are these: mixed with soybean oil. The source says: (§1) To address whether the efficacy of PEP will be increased with menthyl salicylate/soybean oil against harvester and black ants.
(§2) glass petri dishes 100 mm were used in this study
(§3) all treated dishes kept open during the time of exposure

Data set [3] has as its system black ants. The experiment in a line: Open glass petri dish exposure (Study E). The data set is classed as in vivo. The conditions noted are these: mixed with soybean oil.
Text: as §1, §2, §3

Consider `CC1CCC(C(C)C)C(OC(=O)c2ccccc2O)C1` (stereo not drawn) [Menthyl salicylate, 2-hydroxybenzoic acid 5-methyl-2-(1-methylethyl)cyclohexyl ester], for which, in data set [1] (250 mg/jar), the “killing agent (conclusion in words)” value was “good killing agent”. Besides, the “mortality (M)” value in data set [1] (250 mg/jar, 24 hr after continuous exposure) is given as 100%. Moreover, in data set [1] (menthyl salicylate 250 mg/jar, 20 min after exposure), the “KD (knock-down)” value was 30%. In addition, the “synergy with eugenol/PEP (in words)” value in data set [1] (menthyl salicylate at 4-250 mg) is “synergizes the efficacy of eugenol/PEP”. Moreover, the “time to 100% M” value in data set [2] is on record as at most 11 min; in data set [3], at most 40 min.

These data come from patent publication US6534099B1, “Pesticidal compositions containing menthyl salicylate” (Ecosmart Technologies, Inc., priority 1993, dated 2003).
